From ChEMBL document CHEMBL1914304 (J Med Chem, 2011)

Assays:
BJ = assay: Cytotoxicity against human BJ cells after 72 hrs by luminescence assay; type: cell-based
HepG2 = assay: Cytotoxicity against human HepG2 cells after 72 hrs by luminescence assay; type: cell-based; details: hepg2, 72 h
[1] = Selectivity ratio of EC50 for human HepG2 cells to EC50 for Plasmodium falciparum
HEK293 = assay: Cytotoxicity against human HEK293 cells after 72 hrs by luminescence assay; type: cell-based; details: hek293, 72 h
Raji = assay: Cytotoxicity against human Raji cells after 72 hrs by luminescence assay; type: cell-based

Structure (SMILES) | Activity (BJ) | Activity (HepG2) | selectivity ratio [1] | Activity (HEK293) | Activity (Raji)
Cl.O=C(CCc1ccc(F)cc1)c1ccccc1OCC(O)CN1CCC(O)(c2ccc(Cl)cc2)CC1 (racemic) | Non-toxic | Non-toxic | > 10 | Non-toxic | Non-toxic
Cl.O=C(CCc1ccc(F)cc1)c1ccccc1OCC(O)CN1CCN(c2ccccc2)CC1 (racemic) | Non-toxic | Non-toxic | > 10 | Non-toxic | Non-toxic
Cl.O=C(CCc1ccc(F)cc1)c1ccccc1OCC(O)CN1CCN(Cc2ccccc2)CC1 (racemic) | Non-toxic | Non-toxic | > 10 | Non-toxic | Non-toxic
Cc1ccccc1N1CCN(CC(O)COc2ccccc2C(=O)CCc2ccc(F)cc2)CC1.Cl (racemic) | Non-toxic | Non-toxic | > 10 | Non-toxic | Non-toxic
Cc1cccc(N2CCN(CC(O)COc3ccccc3C(=O)CCc3ccc(F)cc3)CC2)c1.Cl (racemic) | Non-toxic | Non-toxic | > 10 | Non-toxic | Non-toxic
Cc1ccc(N2CCN(CC(O)COc3ccccc3C(=O)CCc3ccc(F)cc3)CC2)cc1.Cl (racemic) | Non-toxic | Non-toxic | > 10 | Non-toxic | Non-toxic
COc1ccccc1N1CCN(CC(O)COc2ccccc2C(=O)CCc2ccc(F)cc2)CC1.Cl (racemic) | Non-toxic | Non-toxic | > 10 | Non-toxic | Non-toxic
COc1cccc(N2CCN(CC(O)COc3ccccc3C(=O)CCc3ccc(F)cc3)CC2)c1.Cl (racemic) | Non-toxic | Non-toxic | > 10 | Non-toxic | Non-toxic
COc1ccc(N2CCN(CC(O)COc3ccccc3C(=O)CCc3ccc(F)cc3)CC2)cc1.Cl (racemic) | Non-toxic | Non-toxic | > 10 | Non-toxic | Non-toxic
Cl.O=C(CCc1ccc(F)cc1)c1ccccc1OCC(O)CN1CCN(c2ccccc2Cl)CC1 (racemic) | Non-toxic | Non-toxic | > 10 | Non-toxic | Non-toxic
Cl.O=C(CCc1ccc(F)cc1)c1ccccc1OCC(O)CN1CCN(c2ccc(Cl)cc2)CC1 (racemic) | Non-toxic | Non-toxic | > 10 | Non-toxic | Non-toxic
Cl.O=C(CCc1ccc(F)cc1)c1ccccc1OCC(O)CN1CCN(c2ccc(Cl)c(Cl)c2)CC1 (racemic) | Non-toxic | Non-toxic | > 10 | Non-toxic | Non-toxic
Cl.O=C(CCc1ccc(F)cc1)c1ccccc1OCC(O)CN1CCN(c2ccccc2F)CC1 (racemic) | Non-toxic | Non-toxic | > 10 | Non-toxic | Non-toxic
Cl.O=C(CCc1ccc(F)cc1)c1ccccc1OCC(O)CN1CCN(c2ccc(F)cc2)CC1 (racemic) | Non-toxic | Non-toxic | > 10 | Non-toxic | Non-toxic
Cl.O=C(CCc1ccc(F)cc1)c1ccccc1OCC(O)CN1CCN(c2ccc([N+](=O)[O-])cc2)CC1 (racemic) | Non-toxic | Non-toxic | > 10 | Non-toxic | Non-toxic
Cl.Nc1ccc(N2CCN(CC(O)COc3ccccc3C(=O)CCc3ccc(F)cc3)CC2)cc1 (racemic) | Non-toxic | Non-toxic | > 10 | Non-toxic | Non-toxic
Cl.O=C(CCc1ccc(F)cc1)c1ccccc1OCC(O)CN1CCN(c2ccc(O)cc2)CC1 (racemic) | Non-toxic | Non-toxic | > 10 | Non-toxic | Non-toxic
Cl.O=C(CCc1ccc(F)cc1)c1ccccc1OCC(O)CN1CCN(c2ccc(C(F)(F)F)cc2)CC1 (racemic) | Non-toxic | Non-toxic | > 10 | Non-toxic | Non-toxic
Cl.O=C(CCc1ccc(F)cc1)c1ccccc1OCC(O)CN1CCN(C(=O)c2ccccc2)CC1 (racemic) | Non-toxic | Non-toxic | > 10 | Non-toxic | Non-toxic
CN1CCN(CC(O)COc2ccccc2C(=O)CCc2ccc(F)cc2)CC1.Cl (racemic) | Non-toxic | Non-toxic | > 10 | Non-toxic | Non-toxic
CCN1CCN(CC(O)COc2ccccc2C(=O)CCc2ccc(F)cc2)CC1.Cl (racemic) | Non-toxic | Non-toxic | > 10 | Non-toxic | Non-toxic
Cl.O=C(CCc1ccc(F)cc1)c1ccccc1OCC(O)CN1CCOCC1 (racemic) | Non-toxic | Non-toxic | > 10 | Non-toxic | Non-toxic
Cl.O=C(CCc1ccccc1)c1cc(F)ccc1OCC(O)CN1CCC(Cc2ccccc2)CC1 (racemic) | Non-toxic | Non-toxic | > 10 | Non-toxic | Non-toxic
Cl.O=C(CCc1ccccc1)c1cc(F)ccc1OCC(O)CN1CCC(O)(Cc2ccccc2)CC1 (racemic) | Non-toxic | Non-toxic | > 10 | Non-toxic | Non-toxic
Cl.O=C(CCc1ccccc1)c1cc(F)ccc1OCC(O)CN1CCNCC1 (racemic) | Non-toxic | Non-toxic | > 10 | Non-toxic | Non-toxic
Cl.O=C(CCc1ccccc1)c1cc(F)ccc1OCC(O)CN1CCC(c2ccccc2)CC1 (racemic) | Non-toxic | Non-toxic | > 10 | Non-toxic | Non-toxic
Cl.O=C(CCc1ccccc1)c1cc(F)ccc1OCC(O)CN1CCN(c2ccc(Cl)cc2)CC1 (racemic) | Non-toxic | Non-toxic | > 10 | Non-toxic | Non-toxic
Cl.O=C(CCc1ccccc1)c1cc(F)ccc1OCC(O)CN1CCN(c2ccccc2)CC1 (racemic) | Non-toxic | Non-toxic | > 10 | Non-toxic | Non-toxic
